Data taken from patent EP3960748A1, “COMPOSITION FOR THE TREATMENT OF THE SIDE EFFECTS OF RADIOTHERAPY AND/OR CHEMOTHERAPY” (Fundación Profesor Novoa Santos, priority 2019, dated 2020).

Assays:
Type in all cases: cell-based
[1] = tested on: p53; assay: Western blot of p53 in radiated fibroblasts; settings: Fig. 7; post-radiation treatment for 72 hours; oleuropein 10 µM, BIRB796 2.5 µM; 55 Grays; relative to tubulin
Source text: (§1) Skin tissue biopsies from female patients of A Coruña University Hospital Complex - A Coruña Integrated Management Services (Complejo Hospitalario Universitario de A Coruña - Xerencia Xestión Integrada A Coruña (CHUAC-XXIAC)) were obtained from operations for the surgical removal of a benign pathology (fibroadenoma, samples consisting of untreated healthy skin) and from oncology interventions (samples consisting of skin subjected to radiotherapy and chemotherapy). Signed informed consent was received from each of the patients (2015/029, C.0003333, 2016/077). To isolate primary fibroblast from these samples, hypodermal fat was removed with the aid of a scalpel, and the epidermis was segmented into fragments of about 1x1 cm (explants). Lines were made with a scalpel on a 100 cm^2 adherent Petri dish creating a grid, and each of the explants was placed in the resulting intersections with the epidermis facing up and the dermis in contact with the dish. […] The working concentrations of said compounds were determined by means of literature review and cell viability assays (MTT). […]

[2] = tested on: p21; assay: Western blot of p21 in radiated fibroblasts; settings: Fig. 7; post-radiation treatment for 72 hours; oleuropein 10 µM, BIRB796 2.5 µM; 55 Grays; relative to tubulin
Source text: as §1

[3] = tested on: MMP-3; assay: Gene expression analysis (qPCR) of MMP-3; settings: Fig. 5B; 72 hours, BIRB796 2.5 µM; 55 Grays; normalized against HPRT1, compared to non-radiated healthy fibroblast control
Source text: as §1
(§2) For RNA extraction from the different cell types, TRI Reagent (MRC) was used following the manufacturer's instructions. […] The amount and quality of the obtained RNA was quantified in Nanodrop ND-1000. […]

[4] = tested on: IL-1β; assay: Gene expression analysis (qPCR) of IL-1β; settings: Fig. 5C; 72 hours, BIRB796 2.5 µM with or without oleuropein; 55 Grays; normalized against HPRT1
Source text: as §1, §2

[5] = tested on: IL-6; assay: Gene expression analysis (qPCR) of IL-6; settings: Fig. 5C; 72 hours, BIRB796 2.5 µM with or without oleuropein; 55 Grays; normalized against HPRT1
Source text: as §1, §2

[6] = tested on: p21; assay: Gene expression analysis (qPCR) of p21; settings: Fig. 8; 72 hours; oleuropein 10 µM, BIRB796 2.5 µM; 55 Grays; normalized against HPRT1
Source text: as §1, §2

Question: How did the “protein levels of p53” value [1] turn out when `Cc1ccc(-n2nc(C(C)(C)C)cc2NC(=O)Nc2ccc(OCCN3CCOCC3)c3ccccc23)cc1` [BIRB796, doramapimod] was run?
Answer: The value was “effectively reduced protein levels of both factors”.

Question: And the “protein levels of p21” value [2]?
Answer: The value was “effectively reduced protein levels of both factors”.

Question: And the “MMP-3 mRNA levels” value [3]?
Answer: The value was “protects against the synthesis of SASP components such as MMP-3”.

Question: What about the “IL-1β mRNA levels” value [4] of the same compound?
Answer: Its value is “decreases synthesis of the inflammatory component”.

Question: And the “IL-6 mRNA levels” value [5]?
Answer: The value was “decreases synthesis of the inflammatory component”.

Question: What about the “p21 mRNA level” value [6] of the same compound?
Answer: Its value is “reduces the gene expression of senescence factor p21”.
